# Experimental data as given in patent publication US20230172959A1, “USE OF NMN FOR THE PREVENTION AND/OR TREATMENT OF A BACK PAIN AND CORRESPONDING COMPOSITIONS” (NUVAMID SA, priority 2020, published 2023).
# Tests used:
# Assay type in all cases: in vivo, human
# [1] = system: chronic lumbalgia; assay: Lequesne algo-functional index, 10-day satisfaction study in 12 volunteers
# Procedure: As for the Lequesne score, it varies from 0 to 22: the higher the score, the more extreme or even intolerable the impairment. From 8 to 10, the impairment is qualified as significant and for an index score greater than or equal to 10, the impairment is qualified as very significant. A satisfaction study was carried out on a group of 12 volunteers, aged 42±8 years, consisting of seven female and five male subjects. The main objective of this study was to evaluate the level of satisfaction of subjects with regard to the evolution of their lumbalgia (low back pain) during the morning and/or evening application of a composition according to the invention containing 5% by weight of NMN. A composition in the form of an oil-in-water emulsion comprising 5% NMN was formulated as follows, the ingredients being designated by their INCI (International Nomenclature of Cosmetic Ingredients) name: Aqua, Paraffinum liquidum, Cetyl alcohol, Glyceryl stearate, Benzyl PCA, Ceteareth-20, Ceteareth-12, Cetyl Palmitate, Cocoglycerides, Cetearyl alcohol, Sodium Hydroxide, NMN. The composition was prepared according to any method well known to the person skilled in the art. The study took place over 10 days. At baseline, ie upon inclusion (DO), the selected subjects provide their demographic characteristics (age, weight, height), indicate the period of persistence and intensity of the pain on a Visual Analogue Scale, and complete the WOMAC and Lequesne questionnaires. […] On day 10, the volunteers complete the WOMAC questionnaire, the Lequesne questionnaire, the Visual Analogue Scale (VAS) of pain, indicating the perceived improvement in lumbalgia pain relief as measured by the PGI-I index (abbreviation for “Patient Global Improvement Impression”), satisfaction with regard to evolution of the lumbalgia on a Likert scale as well as the ease of application and penetration of the composition, assessment of the texture and odour of the composition, likelihood of re-use thereof in the event of recurrence of a similar pain, and recommendation of use to third parties presenting with pain of similar nature. […]
# [2] = system: chronic lumbalgia; assay: Perceived improvement (PGI-I index) and satisfaction with evolution of lumbalgia (Likert scale); settings: end of the study
# Procedure: A satisfaction study was carried out on a group of 12 volunteers, aged 42±8 years, consisting of seven female and five male subjects. The main objective of this study was to evaluate the level of satisfaction of subjects with regard to the evolution of their lumbalgia (low back pain) during the morning and/or evening application of a composition according to the invention containing 5% by weight of NMN. A composition in the form of an oil-in-water emulsion comprising 5% NMN was formulated as follows, the ingredients being designated by their INCI (International Nomenclature of Cosmetic Ingredients) name: Aqua, Paraffinum liquidum, Cetyl alcohol, Glyceryl stearate, Benzyl PCA, Ceteareth-20, Ceteareth-12, Cetyl Palmitate, Cocoglycerides, Cetearyl alcohol, Sodium Hydroxide, NMN. The composition was prepared according to any method well known to the person skilled in the art. On day 10, the volunteers complete the WOMAC questionnaire, the Lequesne questionnaire, the Visual Analogue Scale (VAS) of pain, indicating the perceived improvement in lumbalgia pain relief as measured by the PGI-I index (abbreviation for “Patient Global Improvement Impression”), satisfaction with regard to evolution of the lumbalgia on a Likert scale as well as the ease of application and penetration of the composition, assessment of the texture and odour of the composition, likelihood of re-use thereof in the event of recurrence of a similar pain, and recommendation of use to third parties presenting with pain of similar nature. The PGI-I index is an index that serves as means for evaluating the response to a treatment. The Likert scale is a psychometric tool used for measuring an attitude in individuals, which consists of one or more statements for which the individual responding expresses their degree of agreement or disagreement.
# [3] = Adverse side effects and allergies reported by the volunteers; settings: 10 days topical use of 5% NMN emulsion, 12 volunteers
# Procedure: A satisfaction study was carried out on a group of 12 volunteers, aged 42±8 years, consisting of seven female and five male subjects. The main objective of this study was to evaluate the level of satisfaction of subjects with regard to the evolution of their lumbalgia (low back pain) during the morning and/or evening application of a composition according to the invention containing 5% by weight of NMN.
# A composition in the form of an oil-in-water emulsion comprising 5% NMN was formulated as follows, the ingredients being designated by their INCI (International Nomenclature of Cosmetic Ingredients) name: Aqua, Paraffinum liquidum, Cetyl alcohol, Glyceryl stearate, Benzyl PCA, Ceteareth-20, Ceteareth-12, Cetyl Palmitate, Cocoglycerides, Cetearyl alcohol, Sodium Hydroxide, NMN. The composition was prepared according to any method well known to the person skilled in the art.
# Over the subsequent 9 day period, each evening the subjects fill in the Visual Analogue Scale of pain, ensuring any discomfort or problems arising or the taking of analgesics are reported therein.
compound,measurement,setting,value
"NC(=O)c1ccc[n+]([C@@H]2O[C@H](COP(=O)([O-])O)[C@@H](O)[C@H]2O)c1 (stereo in doubt) [NMN, nicotinamide mononucleotide]",reduction in the Lequesne score,[1]; baseline to study endpoint,38.8%
same,subjects with no impairment or only a modest or slight impairment (Lequesne),[1]; end of the study,83.4%
same,Lequesne algo-functional score,"[1]; study endpoint (day 10), baseline 8.3±2.5, p<0.001, 5% NMN emulsion topical",5.3±3.8
same,subjects with improvement characterised as 'considerable',[2]; 3 subjects,25.0%
same,subjects with improvement characterised as 'a lot',[2]; 4 subjects,33.3%
same,subjects with improvement characterised as 'slight',[2]; 4 subjects,33.3%
same,subjects who experienced improvement,[2]; 12 subjects,91.7%
same,participants satisfied with the evolution of their chronic lumbalgia,[2]; Likert scale,91.7%
same,participants very satisfied with the evolution of their chronic lumbalgia,[2]; Likert scale,33.3%
same,adverse side effects,[3],neither any adverse side effects
same,allergies,[3],nor developed any allergies
